Consider three molecules from patent US20260217767A1, “NOVEL A4B7 THIOETHER PEPTIDE DIMER ANTAGONISTS” (Protagonist Therapeutics, Inc., priority 2014, published 2026).

Where a SMILES comes first, the peptide text is derived from it.

One data set concerns the target T1, rh integrin α4β7 (Homo sapiens, UniProt P13612+P26010).
T1 construct: purchased R&D Systems 5397-A30
T1 sequence (P13612 34-977 limits assumed): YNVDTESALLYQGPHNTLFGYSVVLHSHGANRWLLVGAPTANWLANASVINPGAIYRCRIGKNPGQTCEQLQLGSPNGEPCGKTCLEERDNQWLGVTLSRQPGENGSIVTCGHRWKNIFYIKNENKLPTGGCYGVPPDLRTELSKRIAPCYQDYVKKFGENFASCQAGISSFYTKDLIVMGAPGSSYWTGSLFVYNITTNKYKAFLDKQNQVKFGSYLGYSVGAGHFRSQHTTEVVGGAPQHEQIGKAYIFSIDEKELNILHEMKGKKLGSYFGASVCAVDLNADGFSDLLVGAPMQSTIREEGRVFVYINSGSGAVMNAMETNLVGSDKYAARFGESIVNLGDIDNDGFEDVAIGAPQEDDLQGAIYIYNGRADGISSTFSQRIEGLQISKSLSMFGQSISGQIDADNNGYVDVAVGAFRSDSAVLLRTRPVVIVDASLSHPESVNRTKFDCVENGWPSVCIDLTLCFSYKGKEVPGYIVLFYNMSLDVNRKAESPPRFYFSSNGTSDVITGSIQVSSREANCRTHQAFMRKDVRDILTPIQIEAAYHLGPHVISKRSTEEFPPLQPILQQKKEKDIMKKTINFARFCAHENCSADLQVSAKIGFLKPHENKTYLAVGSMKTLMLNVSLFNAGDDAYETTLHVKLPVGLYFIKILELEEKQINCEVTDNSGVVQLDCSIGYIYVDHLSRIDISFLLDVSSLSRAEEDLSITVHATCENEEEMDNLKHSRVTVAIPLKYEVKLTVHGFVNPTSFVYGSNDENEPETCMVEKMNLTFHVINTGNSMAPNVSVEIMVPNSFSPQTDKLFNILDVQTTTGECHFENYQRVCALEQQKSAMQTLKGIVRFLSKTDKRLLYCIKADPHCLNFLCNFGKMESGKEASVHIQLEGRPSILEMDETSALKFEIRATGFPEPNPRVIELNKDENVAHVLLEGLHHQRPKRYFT
T1 sequence (P26010 20-723 limits assumed): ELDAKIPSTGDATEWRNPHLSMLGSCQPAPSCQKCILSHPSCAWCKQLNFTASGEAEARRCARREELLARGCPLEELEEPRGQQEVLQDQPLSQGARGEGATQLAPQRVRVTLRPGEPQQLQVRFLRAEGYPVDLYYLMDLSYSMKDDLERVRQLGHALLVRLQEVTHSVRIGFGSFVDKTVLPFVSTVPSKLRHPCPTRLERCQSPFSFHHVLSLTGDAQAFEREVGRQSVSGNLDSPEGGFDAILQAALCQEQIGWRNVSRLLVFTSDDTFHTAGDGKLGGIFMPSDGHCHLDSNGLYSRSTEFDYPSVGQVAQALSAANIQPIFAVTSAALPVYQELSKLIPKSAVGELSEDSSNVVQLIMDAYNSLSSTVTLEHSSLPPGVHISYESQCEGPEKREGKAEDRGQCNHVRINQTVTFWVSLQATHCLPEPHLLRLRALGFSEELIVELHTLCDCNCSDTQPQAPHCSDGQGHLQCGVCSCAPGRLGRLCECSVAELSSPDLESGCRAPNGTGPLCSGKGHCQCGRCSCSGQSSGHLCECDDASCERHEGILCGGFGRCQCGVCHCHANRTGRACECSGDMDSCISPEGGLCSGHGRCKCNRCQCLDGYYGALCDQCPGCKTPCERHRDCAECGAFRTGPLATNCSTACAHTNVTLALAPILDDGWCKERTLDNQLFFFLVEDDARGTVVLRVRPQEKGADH
Kind of data set: α4β7-MAdCAM Competition ELISA. It counts as binding. The following applies: thioether monomer peptides, Table 6; read-out: ELISA A4B7. Put shortly:
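Recombinant human α4β7 captured on nickel-coated plates, then incubated 1 h at room temperature with serially diluted peptides (final top 10 μM) and 10 nM final MAdCAM-1 in Tris pH 7.6 buffer with 1 mM MnCl2 or MgCl2. Bound MAdCAM-1 detected with anti-human IgG1-HRP and TMB, absorbance at 450 nm.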
(An ELISA detects its analyte on a solid surface through an enzyme-linked reagent.)

A short description of data set [1]: Simulated Intestinal Fluid (SIF) Stability Assay. The following applies: pig, 37° C., monomers, Table 6; for half-life: porcine pancreatin. It counts as in vitro ADME. The procedure, abridged: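 Peptide at 22 μM final was incubated at 37° C in blank FaSSIF pH 6.5 with 1% porcine pancreatin. Timed samples were quenched in acetonitrile/methanol/formic acid with internal standard and analysed by LC-MS/MS. Half-lives came from first-order exponential fits of percent remaining.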

For orientation: half-life means how long it takes for the measured level to halve. A higher half-life goes with slow loss. On to `CC(C)C[C@@H]1NC(=O)[C@H]([C@@H](C)O)NC(=O)[C@H](CC(=O)O)NC(=O)[C@H](CO)NC(=O)[C@H](CCCNC(=N)N)N(C)C(=O)c2ccccc2CSC(C)(C)[C@@H](C(=O)N[C@@H](Cc2ccc(C(F)(F)F)cc2)C(=O)N[C@@H](CCC(=O)O)C(=O)N[C@H](CCCCN)C(N)=O)NC1=O` [compound 76] (HELM PEPTIDE1{[meR].S.D.T.L.[Pen].[O=C([C@H](Cc1ccc(C(F)(F)F)cc1)N[*:1])[*:2]].E.[dK].[am]}|CHEM1{[O=C(c1ccccc1C[*:2])[*:1]]}$PEPTIDE1,CHEM1,1:R1-1:R1|PEPTIDE1,CHEM1,6:R3-1:R2$$$V2.0), for which the IC50 on rh integrin α4β7 was less than 25 nM. Moreover, in data set [1], the half-life is more than 3 h.
The matching figures for `CC(C)C[C@@H]1NC(=O)[C@H]([C@@H](C)O)NC(=O)[C@H](CC(=O)O)NC(=O)[C@H](CO)NC(=O)[C@H](CCCNC(=N)N)N(C)C(=O)c2ccccc2CSC(C)(C)[C@@H](C(=O)N[C@@H](Cc2cccc3ccccc23)C(=O)N[C@@H](CCC(=O)O)C(=O)N[C@H](CCCCN)C(N)=O)NC1=O` [compound 77] (HELM PEPTIDE1{[meR].S.D.T.L.[Pen].[O=C([C@H](Cc1cccc2ccccc12)N[*:1])[*:2]].E.[dK].[am]}|CHEM1{[O=C(c1ccccc1C[*:2])[*:1]]}$PEPTIDE1,CHEM1,1:R1-1:R1|PEPTIDE1,CHEM1,6:R3-1:R2$$$V2.0): less than 25 nM and 1.47 h.
As for `CC(C)C[C@@H]1NC(=O)[C@H]([C@@H](C)O)NC(=O)[C@H](CC(=O)O)NC(=O)[C@H](CO)NC(=O)[C@H](CCCNC(=N)N)N(C)C(=O)c2ccccc2CSC(C)(C)[C@@H](C(=O)N[C@@H](Cc2ccc(O)cc2)C(=O)N[C@@H](CCC(=O)O)C(=O)N[C@H](CCCCN)C(N)=O)NC1=O` [compound 78] (HELM PEPTIDE1{[meR].S.D.T.L.[Pen].Y.E.[dK].[am]}|CHEM1{[O=C(c1ccccc1C[*:2])[*:1]]}$PEPTIDE1,CHEM1,1:R1-1:R1|PEPTIDE1,CHEM1,6:R3-1:R2$$$V2.0), at rh integrin α4β7, the IC50 is less than 25 nM. Further, the half-life at 22 μM in data set [1] (simulated intestinal fluid (SIF) with 1% porcine pancreatin, pH 6.5, porcine pancreatin) was 1.3 h.
